Measured values from patent US7262301B1, “Zinc-chelating ratiometric fluorescent probes and related methods” (Northwestern University, priority 2003, dated 2007).
Values after ≈ are worked out from the molar mass of the structure shown. Like-named read-outs stand apart in the source and are kept apart here. Blank lines part the entries; values can stand above or below the compound they belong to.

How the values were obtained:
[1] = 10 μM ligand, 1 μM Zn(II), pH 7.20, 0.1 M ionic strength, 25° C.; prior art ligands, literature data; cited from earlier work
[2] = test system: mouse fibroblast LTK cell line; experiment: Two-photon emission ratio imaging of fixed fibroblast cells; assay type: cell-based
Procedure: FIG. 5. Emission ratio images of fibroblast (LTK) cells treated with Zinbo-5. (A) Brightfield transmission image; (B) ratio image of the intensities at 445 nm and 402 nm; (C) ratio image following a 30 minute treatment with 10 μM zinc sulfate and 20 μM pyrithione at pH 7.4, 25° C., followed by wash with Zinbo-5 stock; (D) ratio image of the same field after a 15 minute treatment with 1 mM TPEN.
The Zinbo-5 probe was tested in the mouse fibroblast LTK cell line. Cells were fixed, treated with a saturated solution of Zinbo-5 and then imaged with two-photon excitation (TPE) laser scanning microscopy using on Zeiss 510 LSM (upright configuration). The excitation beam produced by the femtosecond pulsed Ti:sapphire laser (Tsunami, Spectra-Physics; 8 W Millennia pump) was tuned to 710 nm, (pumping power 6.5 W with 0.5 W entering the Zeiss AOM) was passed through an LSM 510 microscope with an HFT 650 dichroic (Zeiss) and focused onto coverslip adherent fibroblasts using a 63x oil-immersion objective (Zeiss). The NLO META scan head (Zeiss) allowed data collection in 10.7 nm windows centered at 445 nm and 402 nm.
Cells were imaged in the presence of Zinbo-5 to provide the contrast of unbound dye outside of the cells (FIG. 5). After imaging, the same field of cells was treated with 10 μM zinc sulfate and 20 μM pyrithione, a zinc-selective ionophore, resulting in an anticipated increase in the intracellular ratio of emissions from 445 nm and 402 nm (FIG. 5, d-f). Finally, the intracellular ratio was made equal to that of the surrounding unbound dye by treating the same field of view with TPEN (FIG. 5, g-i).
LTK cells were grown as previously published (Nasir, M. S., et al., JBIC (1999) 4:775-783). Cells grown on coverslips were fixed with 4% formaldehyde on ice for 20 minutes and washed with cold PBS before staining. […] Coverslips were attached to slides using Secure-Seal spacers (Molecular Probes) with the saturated staining solution in the spacer well. […]

[3] = Metal ion selectivity of fluorescence (ratio I443/I395) in biological buffers
Procedure: FIG. 4. Metal ion selectivity of Zinbo-5. Bars are a presentation of the fluorescence ratio I443/I395. Heavy metals (20 μM) and Na^+, K^+, Ca^2+, Mg^2+ (5 mM) were added to 1.5 μM Zinbo-5 in the presence of 10 μM EDTA.

[4] = Binding constant determination: fluorescence intensity ratio (or UV absorbance) in Zn2+/EGTA buffered solutions
Procedure: FIG. 2. (A) Emission spectra of Zinbo-5 with the excitation at 356 nm in Zn^2+/EGTA buffered system (50 mM HEPES, pH 7.20, 0.1 M KNO3; 10 mM EGTA, 1-9 mM zinc sulfate) at 0, 0.14, 0.29, 0.66, 1.1, 1.8, 2.6, 4.0, 6.1, and 11 nM free Zn^2+, respectively. (B) Plots of the fluorescence intensity ratio between 395 nm and 443 nm (I443/I395) with a best curve for a dissociation constant of 2.1±0.1×10^−9.
FIG. 3. UV determination of dissociation constant, Kd: (A) Absorption ratio between at 340 nm and at 374 nm (Abs374/Abs340) in Zn^2+-buffered solution (50 mM HEPES, pH 7.20, 0.1 M KNO3; […], 1-9 mM zinc sulfate).
A series of HEPES (2-[4-(2-hydoroxyethyl)-1-piperazinyl]ethanesulfonic acid) buffer solutions (50 mM, pH 7.20, 0.1 M KNO3) containing various amounts of ZnSO4 (0˜9.5 mM) and 10 mM of EGTA (ethylenebis(oxyethylenenitrilo) tetraacetic acid) were prepared. The concentration of free Zn^2+ was calculated with [EGTA]total, [Zn^2+]total, and K′Zn-EGTA, the apparent binding constant at a given pH and ionic strength. […]
The ratio between 395 nm and 443 nm intensities in the emission spectrum of each solution was measured with the excitation wavelength at 356 nm and was fitted to the following equation (Eq. 2). […]

[5] = Calculated pZn values (-log[Zn]free) for a ligand/zinc solution; assay type: binding
Source text: […] […] The Zn^2+ affinity of Zinbo-5 is much higher than that of di(2-picolyl)amine (DPA), indicating—without limitation—that the phenolate oxygen and benoxazole nitrogen are likely chelating the metal as the third and fourth ligands.

[6] = Maximal water solubility (saturated staining solution); assay type: physicochemical; settings: PBS (saturated staining solution), PBS with DMSO stock, on ice
[7] = heavy metals 20 μM, 1.5 μM probe, 10 μM EDTA

Compound: Cc1ccc(S(=O)(=O)Nc2cc(OCC(=O)O)cc3ccc(C)nc23)cc1 [Zinquin acid]
- Calculated pZn (-log[Zn]free) [1]: 9.3

Compound: O=C(O)CN(CC(=O)O)CC(=O)O [NTA]
- Calculated pZn (-log[Zn]free) [1]: 9.0

Compound: c1ccc(CN(CCN(Cc2ccccn2)Cc2ccccn2)Cc2ccccn2)nc1 [TPEN, N,N,N′,N′-tetrakis (2-pyridylmethyl) ethylenediamine, reference compound]
- Calculated pZn (-log[Zn]free) [1]: 16.0
- decrease of the intracellular emission ratio ([2]; LTK cells stained with Zinbo-5, zinc loaded, then excess TPEN (1 mM, 15 minute)): 30%

Compound: O=C(O)c1cc(NCCN(Cc2ccccn2)Cc2ccccn2)ccc1-c1c2ccc(=O)cc-2oc2cc(O)ccc12 [ZnAF-1]
- Calculated pZn (-log[Zn]free) [1]: 10.1

- Zn^2+ affinity compared with di(2-picolyl)amine (DPA) [4]: much higher
- Kd ([4]; pH 7.20, fluorescence intensity ratio between 395 nm and 443 nm against log[Zn2+]free, read-out: apparent dissociation constant (Kd) for Zn^2+): 2.2 ± 0.1 nM
- solubility [6]: 1.5 µM (≈ 0.587 µg/mL)
- cell permeability [2]: cell permeable
Compound: COc1cc(O)c(-c2nc3c(CNCc4ccccn4)cccc3o2)cc1OC [Zinbo-5, 2-(4,5-dimethoxy-2-hydroxyphenyl)-4-(2-pyridlmethyl)aminomethylbenzoxazole]
- fluorescence response to Mn^2+, Co^2+, Ni^2+, Fe^+ and Cu^2+ [3, 7]: quenched the fluorescence
- fluorescence response to Zn^2+ and Cd^2+ [3, 7]: induced an emission shift
- fluorescence response to Na^+, K^+, Ca^2+ and Mg^2+ ([3]; metal concentrations as high as 5 mM): no fluorescent response
- Calculated pZn (-log[Zn]free) ([5]; 10 μM ligand, 1 μM Zn(II), pH 7.20, 0.1 M ionic strength, 25° C., the patent's own probe): 9.3
- pZn value (-log[Zn^2+]) ([5]; aqueous solution containing 10 µM ligand and 1 µM zinc ion at pH 7.20 and 0.1 M ionic strength): 9.3
- average intracellular increase in the emission ratio (445 nm/402 nm) ([2]; LTK cells after 10 μM zinc sulfate and 20 μM pyrithione): ca. 15%

Compound: O=C1OC2(c3ccccc31)c1cc(Cl)c(O)c(CN(Cc3ccccn3)Cc3ccccn3)c1Oc1c2cc(Cl)c(O)c1CN(Cc1ccccn1)Cc1ccccn1 [Zinpyr-1]
- Calculated pZn (-log[Zn]free) [1]: 10.1

Compound: O=C(O)CN(CCOCCOCCN(CC(=O)O)CC(=O)O)CC(=O)O [EGTA, ethylenebis(oxyethylenenitrilo) tetraacetic acid]
- Calculated pZn (-log[Zn]free) [1]: 9.5

Compound: carbonic anhydrase
- Calculated pZn (-log[Zn]free) [1]: 12.4

Compound: O=C(O)CN(CCN(CC(=O)O)CC(=O)O)CC(=O)O [EDTA]
- Calculated pZn (-log[Zn]free) [1]: 14.3
